These are literature values, as cited in patent US12233110B2, “Compositions comprising pharmaceutically acceptable salts of glucagon-like peptide-1 analogs and uses thereof” (i20 Therapeutics, Inc., priority 2021, dated 2025).

For this series the following is noted: Reference Data.

As for `O=C(O)O` [bicarbonate], the pKa result is “approximately 6”.
For the molecule `C[N+](C)(C)CCO` [choline], the pKa result was “approximately 14”.
